Experiments:
MCF7 (Breast) = test: In vitro one dose primary anticancer assay; type: cell-based, human; settings: one dose at 10^−4 molar concentration
Method: (§1) Cytotoxicity: 7-methoxy-8-[3′-(4″-acridonylcarboxamido)propyl]-oxy-(11aS)1,2,3,11a-tetrahydro-5H-pyrrolo[2,1-c][1,4]benzodiazepin-5-one of formula IV was evaluated for primary anti-cancer activity (Table 1) and in vitro against sixty human tumour cells derived from nine cancer types (leukemia, non-small-cell lung, colon, CNS, melanoma, ovarian, prostate, and breast cancer). For each compound, dose response curves for each cell line were measured at a minimum of five concentrations at 10 fold dilutions. A protocol of 48 h continuous drug expose was used and a sulforhodamine B (SRB) protein assay was used to estimate cell viability or growth. The concentration causing 50% cell growth inhibition (GI50), total cell growth inhibition (TGI, 0% growth) and 50% cell death (LC50, −50% growth) compared with the control was calculated.

NCI-H460 (Lung) = test: In vitro one dose primary anticancer assay; type: cell-based, human; settings: one dose at 10^−4 molar concentration
Method: as §1

SF-268 (CNS) = test: In vitro one dose primary anticancer assay; type: cell-based, human; settings: one dose at 10^−4 molar concentration
Method: as §1

sixty human tumour cells = test: NCI in vitro cytotoxicity, SRB assay, mean graph midpoints; type: cell-based; settings: 48 h continuous drug exposure
Method: as §1

Breast cancer cell lines = test: NCI in vitro cytotoxicity, SRB assay, cancer type average; type: cell-based, human; settings: average of six to nine cell lines
Method: as §1
(§2) Each cancer type represents the average of six to nine different cancer cell lines.

CNS cancer cell lines = test: as above; type: cell-based, human; settings: average of six to nine cell lines
Method: as §1, §2

Colon cancer cell lines = test: as above; type: cell-based, human; settings: average of six to nine cell lines
Method: as §1, §2

[1] = test system: Melanoma cancer cell lines; test: as above; type: cell-based, human; settings: average of six to nine cell lines
Method: as §1, §2

[2] = test system: Ovarian cancer cell lines; test: as above; type: cell-based, human; settings: average of six to nine cell lines
Method: as §1, §2

Renal cancer cell lines = test: as above; type: cell-based, human; settings: average of six to nine cell lines
Method: as §1, §2

[3] = test system: non-small-cell lung cancer cell lines; test: as above; type: cell-based, human; settings: average of six to nine cell lines
Method: as §1, §2

CNS cancer (SNB-75) = test: NCI in vitro cytotoxicity, SRB assay; type: cell-based, human; settings: SNB-75 CNS; read-out: potency at the LC50 level
Method: as §1

[4] = test system: breast cancer (MDA-MB-435); test: NCI in vitro cytotoxicity, SRB assay; type: cell-based, human; settings: MDA-MB-435 breast; read-out: potency at the LC50 level
Method: as §1

colon cancer (HCC-2998) = test: NCI in vitro cytotoxicity, SRB assay; type: cell-based, human; settings: HCC-2998 colon; read-out: potency at the LC50 level
Method: as §1

[5] = test system: melanoma cancer (UACC-62); test: NCI in vitro cytotoxicity, SRB assay; type: cell-based, human; settings: UACC-62 melanoma; read-out: potency at the LC50 level
Method: as §1

[6] = test system: melanoma cancer cell line LOXIMVI; test: NCI in vitro cytotoxicity, SRB assay; type: cell-based, human; settings: read-out: potency at the LC50 level
Method: as §1

[7] = test system: melanoma cancer cell line M14; test: NCI in vitro cytotoxicity, SRB assay; type: cell-based, human; settings: read-out: potency at the LC50 level
Method: as §1

renal cancer (SN12C) = test: NCI in vitro cytotoxicity, SRB assay; type: cell-based, human; settings: read-out: potency at the LC50 level
Method: as §1

SMILES: COc1cc2c(cc1OCCCNC(=O)c1cccc3c(=O)c4ccccc4[nH]c13)N=C[C@@H]1CCCN1C2=O [Compound IV, 7-methoxy-8-[3′-(4″-acridonylcarboxamido)propyl]-oxy-(11aS)1,2,3,11a-tetrahydro-5H-pyrrolo[2,1-c][1,4]benzodiazepin-5-one]
- Growth percentages (Breast) MCF7 (MCF7 (Breast)): 0%
- Growth percentages (Lung) NCI-H460 (NCI-H460 (Lung)): 0%
- Growth percentages (CNS) SF-268 (SF-268 (CNS)): 10%
- Log10 LC50 mean graph midpoint (MG_MID) (sixty human tumour cells; 50% cell death): −4.32
- Log10 GI50 mean graph midpoint (MG_MID) (sixty human tumour cells; 50% cell growth inhibition): −7.73
- Log10 TGI mean graph midpoint (MG_MID) (sixty human tumour cells; total cell growth inhibition): −5.56
- Log LC50 (concentration in mol/L causing 50% lethality) (Breast cancer cell lines): −4.40 mol/L
- Log LC50 (concentration in mol/L causing 50% lethality) (CNS cancer cell lines): −4.425 mol/L
- Log LC50 (concentration in mol/L causing 50% lethality) (Colon cancer cell lines): −4.33 mol/L
- Log LC50 (concentration in mol/L causing 50% lethality) [1]: −5.09 mol/L
- Log LC50 (concentration in mol/L causing 50% lethality) [2]: −4.012 log(mol/L)
- Log LC50 (concentration in mol/L causing 50% lethality) (Renal cancer cell lines): −4.27 mol/L
- Log LC50 (concentration in mol/L causing 50% lethality) [3]: −4.14 log10(mol/L)
- LC50 (concentration causing 50% cell death) (CNS cancer (SNB-75)): 100 nM
- CC50 [4]: 100 nM
- LC50 (concentration killing 50% of cells) (colon cancer (HCC-2998)): 100 nM
- LC50 (concentration causing 50% cell death) [5]: < 10 nM
- CC50 [6]: > 10 µM
- LC50 [7]: > 10 µM
- LC50 (concentration causing 50% cell death) (renal cancer (SN12C)): > 10 µM

Source: patent US7056913B2, “C8—linked pyrrolo[2,1-c][1,4]benzodiazepine-acridone/acridine hybrids” (Council of Scientific and Industrial Research, priority 2004, dated 2006)
